These compounds were tested against T1, vanilloid receptor (Rattus norvegicus, UniProt O35433) (assay: 45Ca influx test in cultured neonatal rat DRG neurons, inhibition of capsaicin response). Conditions: neonatal rat DRG neurons, capsaicin 0.5 μM, 45Ca influx; read-out: Antagonist Calcium Uptake Test (IC50).
T1 construct: DRG nerve cells from the primary culture of 2 days were equilibrated; endogenous in cells; host or cells: primary culture of dorsal root ganglion neurons from neonatal SD rats
T1 sequence (O35433 whole entry): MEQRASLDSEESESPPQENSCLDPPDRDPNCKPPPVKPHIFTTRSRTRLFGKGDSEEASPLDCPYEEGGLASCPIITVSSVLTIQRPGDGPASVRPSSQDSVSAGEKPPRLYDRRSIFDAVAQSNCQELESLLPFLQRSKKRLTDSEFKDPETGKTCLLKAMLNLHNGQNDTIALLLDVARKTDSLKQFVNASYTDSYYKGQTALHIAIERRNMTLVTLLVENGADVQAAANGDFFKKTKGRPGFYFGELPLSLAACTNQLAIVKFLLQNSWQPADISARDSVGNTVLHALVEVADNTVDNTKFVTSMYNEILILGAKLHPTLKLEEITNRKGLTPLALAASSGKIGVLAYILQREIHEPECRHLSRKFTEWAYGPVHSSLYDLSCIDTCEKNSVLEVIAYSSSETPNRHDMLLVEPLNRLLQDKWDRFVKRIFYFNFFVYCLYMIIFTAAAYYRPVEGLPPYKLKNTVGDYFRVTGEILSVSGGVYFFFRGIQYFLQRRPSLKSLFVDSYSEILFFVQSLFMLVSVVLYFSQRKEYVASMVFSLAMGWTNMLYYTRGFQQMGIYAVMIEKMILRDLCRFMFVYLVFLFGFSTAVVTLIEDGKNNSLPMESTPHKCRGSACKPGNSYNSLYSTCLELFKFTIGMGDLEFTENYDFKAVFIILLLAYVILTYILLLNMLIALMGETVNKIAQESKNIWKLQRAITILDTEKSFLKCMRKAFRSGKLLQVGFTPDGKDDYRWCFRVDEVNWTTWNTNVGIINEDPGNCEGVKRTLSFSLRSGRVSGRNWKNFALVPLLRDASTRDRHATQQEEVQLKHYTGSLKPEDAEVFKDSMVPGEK
Format: cell-based
Procedure, shortened: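 Neonatal SD rat DRG neurons, cultured 2 days with NGF (200 ng/ml) and Ara-C, were washed in HEPES (10 mM, pH 7.4)-buffered Ca/Mg-free HBSS. Test compound was added with capsaicin (final 0.5 μM) and 45Ca (10 μCi/ml) for 10 min at room temperature; 45Ca uptake counted by scintillation after SDS elution.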

Row | IC50 | SMILES
1 | 3100 nM | C#Cc1cc(CNC(=O)/C=C/c2ccc(C(F)(F)F)nc2-n2cccn2)cc(F)c1NS(C)(=O)=O [Example 80, N-(3-Ethynyl-5-fluoro-4-methanesulfonylamino-benzyl)-3-[2-pyrazol-1-yl-6-trifluoromethyl-pyridin-3-yl]-acrylamide]
2 | 1300 nM | C#Cc1cc(CNC(=O)/C=C/c2ccc(C(F)(F)F)nc2C)cc(F)c1NS(C)(=O)=O [Example 68, N-(3-Ethynyl-5-fluoro-4-methanesulfonylaminobenzyl)-3-(2-methyl-6-trifluoromethylpyridin-3-yl)acrylamide]
3 | 5400 nM | C#Cc1cc(CNC(=O)/C=C/c2cccnc2N2CCOCC2)cc(F)c1NS(C)(=O)=O [Example 49, N-(3-Ethynyl-5-fluoro-4-methanesulfonylamino-benzyl)-3-(2-morpholin-4-yl-pyridin-3-yl)-acrylamide]
4 | 840 nM | COCCNc1nc(C(F)(F)F)ccc1/C=C/C(=O)NCc1cc(F)c(NS(C)(=O)=O)c(C#N)c1 [Example 101, N-(3-Cyano-5-fluoro-4-methanesulfonylamino-benzyl)-3-[2-(2-methoxy-ethylamino)-6-trifluoromethyl-pyridin-3-yl]-acrylamide]
5 | 9200 nM | COc1cc(C(F)(F)F)c(/C=C/C(=O)NCc2ccc(NS(C)(=O)=O)c(F)c2)cn1 [Example 43, N-(3-Fluoro-4-methanesulfonylaminobenzyl)-3-(6-methoxy-4-trifluoromethylpyridin-3-yl)acrylamide]
6 | 59 nM | C#Cc1cc(CNC(=O)/C=C/c2ccc(C(C)(C)C)nc2Br)cc(F)c1NS(C)(=O)=O [Example 37, 3-(2-Bromo-6-tert-butyl-pyridin-3-yl)-N-(3-ethynyl-5-fluoro-4-methanesulfonylamino-benzyl)-acrylamide]
7 | 130 nM | C#Cc1cc(CNC(=O)/C=C/c2cnc(C(C)(C)C)cc2C(F)(F)F)cc(F)c1NS(C)(=O)=O [Example 18, 3-(6-tert-Butyl-4-trifluoromethyl-pyridin-3-yl)-N-(3-ethynyl-5-fluoro-4-methanesulfonylamino-benzyl)-acrylamide]
8 | 250 nM | C[C@@H](NC(=O)/C=C/c1ccc(C(F)(F)F)nc1Nc1ccccc1)c1ccc(NS(C)(=O)=O)c(F)c1 [Example 149, (R)—N-[1-(3-Fluoro-4-methanesulfonylamino-phenyl)-ethyl]-3-(2-phenylamino-6-trifluoromethyl-pyridin-3-yl)-acrylamide]
9 | 6500 nM | C#Cc1cc(CNC(=O)/C=C/c2ccc(C(F)(F)F)nc2N2CCN(C)CC2)cc(F)c1NS(C)(=O)=O [Example 64, N-(3-Ethynyl-5-fluoro-4-methanesulfonylamino-benzyl)-3-[2-(4-methyl-piperazin-1-yl)-6-trifluoromethyl-pyridin-3-yl]-acrylamide]
10 | 260 nM | C#Cc1cc(CNC(=O)/C=C/c2ccc(C(F)(F)F)nc2N2CCCC2)cc(F)c1NS(C)(=O)=O [Example 62, N-(3-Ethynyl-5-fluoro-4-methanesulfonylamino-benzyl)-3-(2-pyrrolidin-1-yl-6-trifluoromethyl-pyridin-3-yl)-acrylamide]
11 | 190 nM | CC(C)c1nc(C(F)(F)F)ccc1/C=C/C(=O)NCc1cc(F)c(NS(C)(=O)=O)c(F)c1 [Example 232, N-(3,5-Difluoro-4-methanesulfonylamino-benzyl)-3-(2-isopropyl-6-trifluoromethyl-pyridin-3-yl)-acrylamide]
12 | 4900 nM | CS(=O)(=O)Nc1ccc(CNC(=O)/C=C/c2ccc(C(F)(F)F)nc2NCCO)cc1F [Example 61, N-(3-Fluoro-4-methanesulfonylamino-benzyl)-3-[2-(2-hydroxy-ethylamino)-6-trifluoromethyl-pyridin-3-yl]-acrylamide]
13 | 52 nM | CCCNc1nc(C(F)(F)F)ccc1/C=C/C(=O)NCc1ccc(NS(C)(=O)=O)c(C)c1 [Example 225, N-(4-Methanesulfonylamino-3-methyl-benzyl)-3-(2-propylamino-6-trifluoromethyl-pyridin-3-yl)-acrylamide]
14 | 510 nM | C#Cc1cc(CNC(=O)/C=C/c2ccc(C(F)(F)F)nc2-c2ccccc2)cc(F)c1NS(C)(=O)=O [Example 107, N-(3-Ethynyl-5-fluoro-4-methanesulfonylamino-benzyl)-3-(2-phenyl-6-trifluoromethyl-pyridin-3-yl)-acrylamide]
15 | 770 nM | CC(C)Cc1nc(C(F)(F)F)ccc1/C=C/C(=O)NCc1ccc(NS(C)(=O)=O)cc1 [Example 265, 3-(2-Isobutyl-6-trifluoromethyl-pyridin-3-yl)-N-(4-methanesulfonylamino-benzyl)-acrylamide]
16 | 160 nM | C#Cc1cc(CNC(=O)/C=C/c2ccc(C(F)(F)F)nc2NCCCC)cc(F)c1NS(C)(=O)=O [Example 72, 3-(2-Butylamino-6-trifluoromethyl-pyridin-3-yl)-N-(3-ethynyl-5-fluoro-4-methanesulfonylamino-benzyl)-acrylamide]

Row | IC50 | SMILES
17 | 67 nM | CCNc1nc(C(F)(F)F)ccc1/C=C/C(=O)N[C@H](C)c1cc(F)c(NS(C)(=O)=O)c(F)c1 [Example 244, (R)—N-[1-(3,5-Difluoro-4-methanesulfonylamino-phenyl)-ethyl]-3-(2-ethylamino-6-trifluoromethyl-pyridin-3-yl)-acrylamide]
18 | 430 nM | C#Cc1cc(CNC(=O)/C=C/c2ccc(C(F)(F)F)nc2N2CCCC(C(=O)OCC)C2)cc(F)c1NS(C)(=O)=O (centres unmarked) [Example 114, N-(3-Ethynyl-5-fluoro-4-methansulfonylamino-benzyl)-3-[2-(3-ethoxycarbonyl-piperid-1-yl)-6-trifluoromethyl-pyridin-3-yl]-acrylamide]
19 | 4700 nM | CCCCc1nc(C(F)(F)F)ccc1C#CC(=O)NCc1ccc(NS(C)(=O)=O)cc1Cl [Example 263, 3-(2-Butyl-6-trifluoromethyl-pyridin-3-yl)-propynoic acid 2-chloro-4-methanesulfonylamino-benzylamide]
20 | 69 nM | Cc1cc(CNC(=O)/C=C/c2ccc(C(F)(F)F)nc2CCc2ccccc2)ccc1NS(C)(=O)=O [Example 172, N-(4-Methanesulfonylamino-3-methyl-benzyl)-3-(2-phenethyl-6-trifluoromethyl-pyridin-3-yl)-acrylamide]
21 | 34 nM | CC[C@@H](C)c1nc(C(F)(F)F)ccc1/C=C/C(=O)NCc1ccc(NS(C)(=O)=O)c(C)c1 [Example 241, (R)-3-(2-sec-Butyl-6-trifluoromethyl-pyridin-3-yl)-N-1-(4-methanesulfonylamino-3-methyl-benzyl)-acrylamide]
22 | 56 nM | CCNc1nc(C(F)(F)F)ccc1/C=C/C(=O)NCc1cc(F)c(NS(C)(=O)=O)c(F)c1 [Example 257, N-(3,5-Difluoro-4-methanesulfonylamino-benzyl)-3-(2-ethylamino-6-trifluoromethyl-pyridin-3-yl)-acrylamide]
23 | 340 nM | C#Cc1cc(CNC(=O)/C=C/c2ccc(C(F)(F)F)nc2N2CCCCC2)cc(F)c1NS(C)(=O)=O [Example 24, N-(3-Ethynyl-5-fluoro-4-methanesulfonylamino-benzyl)-3-(2-piperid-1-yl-6-trifluoromethyl-pyridinyl-3-yl)-acrylamide]
24 | 10 nM | CCNc1nc(C(F)(F)F)ccc1/C=C/C(=O)N[C@H](C)c1ccc(NS(C)(=O)=O)c(F)c1 [Example 246, N-[1-(3-Fluoro-4-methanesulfonylamino-phenyl)-ethyl]-3-(2-ethylamino)-6-trifluoromethyl-pyridin-3-yl-acrylamide]
25 | 270 nM | C#Cc1cc(CNC(=O)/C=C/c2ccc(C(F)(F)F)nc2Nc2ccccc2)cc(F)c1NS(C)(=O)=O [Example 113, N-(3-Ethynyl-5-fluoro-4-methanesulfonylamino-benzyl)-3-(2-phenylamino-6-trifluoromethyl-pyridin-3-yl)-acrylamide]
26 | 41 nM | CC(C)c1nc(C(F)(F)F)ccc1/C=C/C(=O)N[C@H](C)c1ccc(NS(C)(=O)=O)c(F)c1 [Example 234, (R)—N-[1-(3-Fluoro-4-methanesulfonylamino-phenyl)-ethyl]-3-(2-isopropyl-6-trifluoromethyl-pyridin-3-yl)-acrylamide]
27 | 340 nM | CS(=O)(=O)Nc1ccc(CNC(=O)/C=C/c2ccc(C(F)(F)F)nc2CCc2ccccc2)cc1 [Example 264, N-(4-Methanesulfonylamino-benzyl)-3-(2-phenethyl-6-trifluoromethyl-pyridin-3-yl)-acrylamide]
28 | 3900 nM | O=C(/C=C/c1ccc(C(F)(F)F)nc1CCc1ccccc1)NCc1ccc(NS(=O)(=O)C(F)(F)F)cc1 [Example 279, 3-(2-Phenethyl-6-trifluoromethyl-pyridin-3-yl)-N-(4-trifluoromethanesulfonylamino-benzyl)-acrylamide]
29 | 280 nM | C=Cc1cc(CNC(=O)/C=C/c2ccc(C(F)(F)F)nc2Oc2ccccc2)cc(F)c1NS(C)(=O)=O [Example 133, N-(3-Fluoro-4-methanesulfonylamino-5-vinyl-benzyl)-3-(2-phenoxy-6-trifluoromethyl-pyridin-3-yl)-acrylamide]
30 | 1100 nM | C#Cc1cc(CNC(=O)/C=C/c2ccc(C(F)(F)F)nc2C#CCOC)cc(F)c1NS(C)(=O)=O [Example 153, N-(3-Ethynyl-5-fluoro-4-methanesulfonylamino-benzyl)-3-[2-(3-methoxy-prop-1-ynyl)-6-trifluoromethyl-pyridin-3-yl]-acrylamide]
31 | 700 nM | CCCc1nc(C(F)(F)F)ccc1/C=C/C(=O)NCc1ccc(NS(C)(=O)=O)cc1Cl [Example 251, N-(2-Chloro-4-methanesulfonylamino-benzyl)-3-(2-propyl-6-trifluoromethyl-pyridin-3-yl)-acrylamide]
32 | 54 nM | CCCCCc1nc(C(F)(F)F)ccc1/C=C/C(=O)NCc1ccc(NS(C)(=O)=O)c(C)c1 [Example 198, N-(4-Methanesulfonylamino-3-methyl-benzyl)-3-(2-pentyl-6-trifluoromethyl)-pyridin-3-yl-acrylamide]

Reference: patent US7858621B2 (Amorepacific Corporation, priority 2006, dated 2010)
